Values quoted from earlier work, collected in patent EP0884997B1, “COMPOSITIONS CONTAINING AN ANTIFUNGAL AND A SULFUR COMPOUND” (JANSSEN PHARMACEUTICA N.V., priority 1996, dated 1997).

Conditions: prior art medicated shampoos, dandruff patients

Compound	number of patients not responding to particular medicated shampoo
S=[Se]=S [selenium sulfide]	up to 40%
CC(=O)N1CCN(c2ccc(OCC3COC(Cn4ccnc4)(c4ccc(Cl)cc4Cl)O3)cc2)CC1 (centres unmarked) [ketoconazole]	up to 30%
